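Five compound concentrations were applied to cells in 96-well plates for 48 hours; endpoints were derived by simple linear interpolation of the resulting dose-response curve. GI50 marks 50% less growth.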 Active and inactive are the calls of the source. Rule as the data show it: active = GI50 up to about 1.1 µM and inactive = higher.
Assays:
Assay in all cases: NCI-60 cell line screen, 48 h
[1] = tested on: A549
[2] = tested on: HCT-116
[3] = tested on: SNB-19
[4] = tested on: MDA-MB-231
[5] = tested on: U-251
[6] = tested on: SK-OV-3
[7] = tested on: MOLT-4
[8] = tested on: NCI-H460
[9] = tested on: SW-620
[10] = tested on: SF-539
[11] = tested on: Hs-578T
[12] = tested on: UACC-62
[13] = tested on: COLO 205
[14] = tested on: UACC-257
[15] = tested on: CAKI-1
[16] = tested on: 786-0
[17] = tested on: Malme-3M
[18] = tested on: HCT-15
[19] = tested on: LOX IMVI
[20] = tested on: MDA-MB-435

| SMILES | GI50 [1] | GI50 [2] | GI50 [3] | GI50 [4] | GI50 [5] | GI50 [6] | GI50 [7] | GI50 [8] | GI50 [9] | GI50 [10] | GI50 [11] | GI50 [12] | GI50 [13] | GI50 [14] | GI50 [15] | GI50 [16] | GI50 [17] | GI50 [18] | GI50 [19] | GI50 [20] |
| --- | --- | --- | --- | --- | --- | --- | --- | --- | --- | --- | --- | --- | --- | --- | --- | --- | --- | --- | --- | --- |
| N=c1oc2ccccc2cc1C(=O)Nc1cccc2ccccc12 | > 100 µM (inactive) | > 100 µM (inactive) | > 100 µM (inactive) | > 100 µM (inactive) | 82.4 µM (inactive) | > 100 µM (inactive) | > 100 µM (inactive) | > 100 µM (inactive) | > 100 µM (inactive) | > 100 µM (inactive) | > 100 µM (inactive) | > 100 µM (inactive) | > 100 µM (inactive) | > 100 µM (inactive) | > 100 µM (inactive) | 80 µM (inactive) | 56.6 µM (inactive) | > 100 µM | > 100 µM (inactive) | > 100 µM (inactive) |
| O=C1C2CC(Cl)C(SSC3CC4C(=O)N(SC(Cl)(Cl)C(Cl)Cl)C(=O)C4CC3Cl)CC2C(=O)N1SC(Cl)(Cl)C(Cl)Cl (stereo not given) | 2.86 µM (inactive) | 2.49 µM (inactive) | 3.86 µM (inactive) | 1.54 µM (inactive) | 1.4 µM (inactive) | 3.39 µM (inactive) | 0.192 µM (active) | 2.39 µM (inactive) | 1.27 µM (inactive) | 2.32 µM (inactive) | 2.37 µM (inactive) | 1.69 µM (inactive) | 1.78 µM (inactive) | 2.02 µM (inactive) | 2.11 µM (inactive) | 1.56 µM (inactive) | 1.51 µM (inactive) | 1.29 µM | 1.34 µM (inactive) | 1.65 µM (inactive) |
| COc1ccc2c[n+](C)c3c4cc(OC)c(OC)cc4ccc3c2c1 | 0.53 µM (active) | 4.37 µM (inactive) | 2.52 µM (inactive) | 0.944 µM (active) | 1.49 µM (inactive) | 2.99 µM (inactive) | 3.85 µM (inactive) | 3.91 µM (inactive) | 2.23 µM (inactive) | 10.7 µM (inactive) | 2.6 µM (inactive) | 18.5 µM (inactive) | 0.776 µM (active) | 20.7 µM (inactive) | 42.3 µM (inactive) | 2.39 µM (inactive) | 7.6 µM (inactive) | > 41.9 µM | 4.72 µM (inactive) | 13.7 µM (inactive) |
| CC(C)OC(=O)c1ccc(CCC2=CC(=O)C(Br)=CC2=O)cc1 | 34.7 µM (inactive) | 16.7 µM (inactive) | 15.3 µM (inactive) | 17.2 µM (inactive) | 15.6 µM (inactive) | 40.6 µM (inactive) | 3.09 µM (inactive) | 20.7 µM (inactive) | 15.5 µM (inactive) | 19.2 µM (inactive) | 15.7 µM (inactive) | 17.5 µM (inactive) | 11.9 µM (inactive) | 13.2 µM (inactive) | 20.6 µM (inactive) | 16.5 µM (inactive) | 15.7 µM (inactive) | 15.4 µM | 15.9 µM (inactive) | 16.9 µM (inactive) |
| CC(C)(C)OC(=O)C1=C(N)N(Cc2ccccc2)C2(C)C=CC(=O)C=C12 (stereo not given) | 12.4 µM (inactive) | 3.27 µM (inactive) | 16.1 µM (inactive) | 6.98 µM (inactive) | 8.73 µM (inactive) | 19.5 µM (inactive) | 2.48 µM (inactive) | 15.5 µM (inactive) | 2.37 µM (inactive) | 5.3 µM (inactive) | 14.5 µM (inactive) | 7.93 µM (inactive) | 2.3 µM (inactive) | 5.24 µM (inactive) | 1.83 µM (inactive) | 3.83 µM (inactive) | 4.92 µM (inactive) | 3.21 µM | 2.34 µM (inactive) | 4.02 µM (inactive) |
| COC(=O)c1cc(CC2Cc3cc4c(cc3C2=O)CCC4)cc2c1CCC2 (stereo not given) | > 100 µM (inactive) | 42.2 µM (inactive) | > 100 µM (inactive) | > 100 µM (inactive) | > 100 µM (inactive) | > 100 µM (inactive) | > 100 µM (inactive) | > 100 µM (inactive) | > 100 µM (inactive) | > 100 µM (inactive) | 24.8 µM (inactive) | 95.1 µM (inactive) | 93.3 µM (inactive) | 77.6 µM (inactive) | 64.6 µM (inactive) | 55.2 µM (inactive) | 37.8 µM (inactive) | > 100 µM | > 100 µM (inactive) | > 100 µM (inactive) |
| COC(=O)c1cc(C#N)[nH]c1-c1ccc(Br)s1 | 8.55 µM (inactive) | 13.5 µM (inactive) | 7.74 µM (inactive) | 14.5 µM (inactive) | 10.4 µM (inactive) | 11.6 µM (inactive) | 12.3 µM (inactive) | 17.6 µM (inactive) | 15.9 µM (inactive) | 12.8 µM (inactive) | 5.74 µM (inactive) | 11.6 µM (inactive) | 14.1 µM (inactive) | 9.4 µM (inactive) | 19.2 µM (inactive) | 14.5 µM (inactive) | 7.14 µM (inactive) | 13.7 µM | 9.14 µM (inactive) | 13.5 µM (inactive) |
| Clc1nc2c(C#Cc3ccccc3)ncnc2n1C1CCCCO1 (stereo not given) | 16.5 µM (inactive) | 10 µM (inactive) | 19.6 µM (inactive) | 16.6 µM (inactive) | 12.6 µM (inactive) | 27.6 µM (inactive) | 17.7 µM (inactive) | 15.7 µM (inactive) | 16.3 µM (inactive) | 14.3 µM (inactive) | 24.7 µM (inactive) | 13.4 µM (inactive) | 15.4 µM (inactive) | 15 µM (inactive) | 10 µM (inactive) | 11.6 µM (inactive) | 17.6 µM (inactive) | 12.2 µM | 12.6 µM (inactive) | 7 µM (inactive) |
| CCOC(=O)C(NC(=O)CC)(N1CCN(c2cc3c(cc2F)c(=O)c(C(=O)O)cn3C2CC2)CC1)C(F)(F)F (stereo not given) | > 100 µM (inactive) | > 100 µM (inactive) | > 100 µM (inactive) | 52.2 µM (inactive) | 92.9 µM (inactive) | > 100 µM (inactive) | > 100 µM (inactive) | > 100 µM (inactive) | > 100 µM (inactive) | > 100 µM (inactive) | > 100 µM (inactive) | > 100 µM (inactive) | > 100 µM (inactive) | > 100 µM (inactive) | > 100 µM (inactive) | > 100 µM (inactive) | > 100 µM (inactive) | > 100 µM | > 100 µM (inactive) | > 100 µM (inactive) |
| CC(C)(C)NC(=O)/C(=C\Sc1ccccc1)c1ccccc1 | > 100 µM (inactive) | > 65.6 µM (inactive) | > 100 µM (inactive) | > 95.5 µM (inactive) | > 100 µM (inactive) | > 100 µM (inactive) | 23.2 µM (inactive) | > 100 µM (inactive) | > 100 µM (inactive) | > 64 µM (inactive) | 72.1 µM (inactive) | > 100 µM (inactive) | > 71 µM (inactive) | > 100 µM (inactive) | > 100 µM (inactive) | > 100 µM (inactive) | > 100 µM (inactive) | > 48.5 µM | 20.3 µM (inactive) | > 82.8 µM (inactive) |
| CCOc1c(OC)cc(-c2nc3n(n2)C(=O)C(CC)S3)cc1OC (stereo not given) | > 10 µM (inactive) | > 10 µM (inactive) | > 10 µM (inactive) | > 10 µM (inactive) | > 10 µM (inactive) | > 10 µM (inactive) | > 10 µM (inactive) | > 10 µM (inactive) | > 10 µM (inactive) | > 10 µM (inactive) | > 10 µM (inactive) | > 10 µM (inactive) | > 10 µM (inactive) | > 10 µM (inactive) | > 10 µM (inactive) | > 10 µM (inactive) | > 10 µM (inactive) | > 10 µM | > 10 µM (inactive) | > 10 µM (inactive) |
| Clc1ccccc1-c1nn2c(CCCCCCCCc3nnc4sc(-c5ccccc5Cl)nn34)nnc2s1 | > 100 µM (inactive) | > 100 µM (inactive) | > 100 µM (inactive) | 87.7 µM (inactive) | > 100 µM (inactive) | > 100 µM (inactive) | 16.5 µM (inactive) | > 100 µM (inactive) | > 100 µM (inactive) | > 100 µM (inactive) | > 100 µM (inactive) | > 100 µM (inactive) | > 100 µM (inactive) | > 100 µM (inactive) | > 100 µM (inactive) | > 100 µM (inactive) | > 100 µM (inactive) | > 100 µM | 63.1 µM (inactive) | > 100 µM (inactive) |

Source: ChEMBL document CHEMBL1201862, “PubChem BioAssay data set” (2004)
